The values that follow come from patent US8148531B2 (Chroma Therapeutics Ltd., priority 2005, dated 2012).

Holding throughout (type): cell-based
For one assay, the system named is U937 cell line. Description: Cell inhibition assay (SRB cell viability), U937. The following applies: Homo sapiens, U-937, IC50 range class, 72 h, read-out: Inhibitor Activity vs U937 cell line. The procedure:
(§1) The corresponding cancer cell lines (U937, HCT 116 and HUT) growing in log phase were harvested and seeded at 1000 cells/well (200 ul final volume) into 96-well tissue culture plates. Following 24 h of cell growth cells were treated with compounds (final concentration of 20 uM). Plates were then re-incubated for a further 72 h before a sulphorhodamine B (SRB) cell viability assay was conducted according to Skehan 1990 J Natl Canc Inst 82, 1107-1112.
(§2) Data were expressed as a percentage inhibition of the control, measured in the absence of inhibitor, as follows: — % inhibition=100−((S^i/S^o)×100) where S^i is the signal in the presence of inhibitor and S^o is the signal in the presence of DMSO.
(§3) IC50 values were determined by non-linear regression analysis, after fitting the results of eight data points to the equation for sigmoidal dose response with variable slope (% activity against log concentration of compound), using Graphpad Prism software.

The next assay concerns HCT 116 cell line. The assay is described as follows: Cell inhibition assay (SRB cell viability), HCT 116. The following applies: Homo sapiens, IC50 range class, 72 h, read-out: Inhibitor Activity vs HCT 116 cell line. The procedure:
as §1, §2, §3

A further assay deals with HUT cell line. Description: Cell inhibition assay (SRB cell viability), HUT. The following applies: IC50 range class, 72 h, read-out: Inhibitor Activity vs HUT cell line. As to the method: as §1, §2, §3

With `COc1cc2c(Oc3ccc(NC(=O)c4ccccc4)cc3)ccnc2cc1OCC[C@H](N)C(=O)OCc1ccccc1` [Example 52, (S)-2-Amino-4-[4-(4-benzoylamino-phenoxy)-6-methoxy-quinolin-7-yloxy]-butyric acid benzyl ester], the IC50 in the assay with U937 cell line, with HCT 116 cell line and in the assay on HUT cell line was under 1000 nM in each case.
As for `COc1cc2c(Oc3ccc(NC(=O)c4ccccc4F)cc3)ccnc2cc1OCC[C@H](N)C(=O)OC1CCCC1` [Example 61, (S)-2-Amino-4-{4-[4-(2-fluoro-benzoylamino)-phenoxy]-6-methoxy-quinolin-7-yloxy}-butyric acid cyclopentyl ester], the IC50 in the assay with U937 cell line, in the assay on HCT 116 cell line and with HUT cell line was under 1000 nM in each case.
On to `COc1cc2c(Oc3ccc(NC(=O)c4ccc(F)cc4)cc3)ccnc2cc1OCC[C@H](N)C(=O)OC1CCCC1` [Example 63, (S)-2-Amino-4-{4-[4-(4-fluoro-benzoylamino)-phenoxy]-6-methoxy-quinolin-7-yloxy}-butyric acid cyclopentyl ester], for which the IC50 in the assay on U937 cell line, in the assay with HCT 116 cell line and in the assay on HUT cell line was under 1000 nM throughout.
As to `COc1cc2c(Oc3ccc(NC(=O)c4ccc(F)cc4F)cc3)ccnc2cc1OCC[C@H](N)C(=O)OC1CCCC1` [Example 65, (S)-2-Amino-4-{4-[4-(2,4-difluoro-benzoylamino)-phenoxy]-6-methoxy-quinolin-7-yloxy}-butyric acid cyclopentyl ester], the IC50 in the assay with U937 cell line, with HCT 116 cell line and with HUT cell line was under 1000 nM each time.
`COc1cc2c(Oc3ccc(NC(=O)c4ccc(Cl)cc4)cc3)ccnc2cc1OCC[C@H](N)C(=O)OC1CCCC1` [Example 66, (S)-2-Amino-4-{4-[4-(4-chloro-benzoylamino)-phenoxy]-6-methoxy-quinolin-7-yloxy}-butyric acid cyclopentyl ester]: the IC50 in the assay on U937 cell line, in the assay with HCT 116 cell line and in the assay with HUT cell line was under 1000 nM throughout.
For `COc1cc2c(Oc3ccc(NC(=O)c4cc(C(F)(F)F)ccc4F)cc3)ccnc2cc1OCC[C@H](N)C(=O)OC1CCCC1` [Example 68, (S)-2-Amino-4-{4-[4-(2-fluoro-5-trifluoromethyl-benzoylamino)-phenoxy]-6-methoxy-quinolin-7-yloxy}-butyric acid cyclopentyl ester], the IC50 in the assay with U937 cell line, in the assay on HCT 116 cell line and with HUT cell line was under 1000 nM in each case.
For `COc1cc2c(Oc3ccc(NC(=O)c4ccc(OC(F)(F)F)cc4)cc3)ccnc2cc1OCC[C@H](N)C(=O)OC1CCCC1` [Example 70, (S)-2-Amino-4-{6-methoxy-4-[4-(4-trifluoromethoxy-benzoylamino)-phenoxy]-quinolin-7-yloxy}-butyric acid cyclopentyl ester], the IC50 in the assay with U937 cell line, with HCT 116 cell line and in the assay on HUT cell line was under 1000 nM in each case.
Take `COc1cc2c(Oc3ccc(NC(=O)C4=C(C)c5ccccc5C4)cc3)ccnc2cc1OCC[C@H](N)C(=O)OC1CCCC1` [Example 72, (S)-2-Amino-4-(6-methoxy-4-{4-[(3-methyl-1H-indene-2-carbonyl)-amino]-phenoxy}-quinolin-7-yloxy)-butyric acid cyclopentyl ester]: the IC50 in the assay on U937 cell line, with HCT 116 cell line and in the assay on HUT cell line was under 1000 nM in each case.
For `COc1cc2c(Oc3ccc(NS(=O)(=O)c4ccccc4)cc3)ccnc2cc1OCC[C@H](N)C(=O)OC1CCCC1` [Example 73, (S)-2-Amino-4-[4-(4-benzenesulfonylamino-phenoxy)-6-methoxy-quinolin-7-yloxy]-butyric acid cyclopentyl ester], the IC50 in the assay with U937 cell line was 1000 to 5000 nM; in the assay with HCT 116 cell line, over 5000 nM; with HUT cell line, 1000 to 5000 nM.
Consider `COc1cc2c(Oc3ccc(NC(=O)c4cccs4)cc3)ccnc2cc1OCC[C@H](N)C(=O)OC1CCCC1` [Example 75, (S)-2-Amino-4-(6-methoxy-4-{4-[(thiophene-2-carbonyl)-amino]-phenoxy}-quinolin-7-yloxy)-butyric acid cyclopentyl ester], for which the IC50 in the assay on U937 cell line, in the assay on HCT 116 cell line and with HUT cell line was under 1000 nM each time.
On to `COc1cc2c(Oc3ccc(CC(=O)Nc4ccc(C(F)(F)F)cc4)cc3)ccnc2cc1OCC[C@H](N)C(=O)OC1CCCC1` [Example 79, (S)-2-Amino-4-(6-methoxy-4-{4-[(4-trifluoromethyl-phenylcarbamoyl)-methyl]-phenoxy}-quinolin-7-yloxy)-butyric acid cyclopentyl ester], for which the IC50 with U937 cell line, with HCT 116 cell line and with HUT cell line was under 1000 nM each time.
With `COc1cc2c(Oc3ccc(CC(=O)Nc4ccccc4)cc3)ccnc2cc1OCC[C@H](N)C(=O)OC1CCCC1` [Example 80, (S)-2-Amino-4-[6-methoxy-4-(4-phenylcarbamoylmethyl-phenoxy)-quinolin-7-yloxy]-butyric acid cyclopentyl ester], the IC50 in the assay on U937 cell line, in the assay on HCT 116 cell line and in the assay on HUT cell line was under 1000 nM in each case.
Turning to `COc1cc2c(Oc3ccc(CC(=O)Nc4ccccc4F)cc3)ccnc2cc1OCC[C@H](N)C(=O)OC1CCCC1` [Example 82, (S)-2-Amino-4-(4-{4-[(2-fluoro-phenylcarbamoyl)-methyl]-phenoxy}-6-methoxy-quinolin-7-yloxy)-butyric acid cyclopentyl ester], the IC50 with U937 cell line, in the assay with HCT 116 cell line and with HUT cell line was under 1000 nM in each case.
For the compound `COc1cc2c(Oc3ccc(CC(=O)Nc4cccc(F)c4)cc3)ccnc2cc1OCC[C@H](N)C(=O)OC1CCCC1` [Example 84, (S)-2-Amino-4-(4-{4-[(3-fluoro-phenylcarbamoyl)-methyl]-phenoxy}-6-methoxy-quinolin-7-yloxy)-butyric acid cyclopentyl ester], the IC50 in the assay with U937 cell line, in the assay on HCT 116 cell line and in the assay with HUT cell line was under 1000 nM throughout.
For the compound `COc1cc2c(Oc3ccc(CC(=O)Nc4ccc(F)cc4)cc3)ccnc2cc1OCC[C@H](N)C(=O)OC1CCCC1` [Example 86, (S)-2-Amino-4-(4-{4-[(4-fluoro-phenylcarbamoyl)-methyl]-phenoxy}-6-methoxy-quinolin-7-yloxy)-butyric acid cyclopentyl ester], the IC50 with U937 cell line, in the assay with HCT 116 cell line and in the assay with HUT cell line was under 1000 nM throughout.
Consider `COc1cc2c(Oc3ccc(CC(=O)Nc4ccc(F)cc4F)cc3)ccnc2cc1OCC[C@H](N)C(=O)OC1CCCC1` [Example 88, (S)-2-Amino-4-(4-{4-[(2,4-difluoro-phenylcarbamoyl)-methyl]-phenoxy}-6-methoxy-quinolin-7-yloxy)-butyric acid cyclopentyl ester], for which the IC50 in the assay with U937 cell line, in the assay on HCT 116 cell line and in the assay with HUT cell line was under 1000 nM each time.
`COc1ccc(NC(=O)Cc2ccc(Oc3ccnc4cc(OCC[C@H](N)C(=O)OC5CCCC5)c(OC)cc34)cc2)cc1` [Example 90, (S)-2-Amino-4-(6-methoxy-4-{4-[(4-methoxy-phenylcarbamoyl)-methyl]-phenoxy}-quinolin-7-yloxy)-butyric acid cyclopentyl ester]: the IC50 in the assay on U937 cell line, with HCT 116 cell line and in the assay with HUT cell line was under 1000 nM throughout.
On to `COc1cc2c(Oc3ccc(-c4noc(-c5ccccc5)n4)cc3)ccnc2cc1OCC[C@H](N)C(=O)OC1CCCC1` [Example 92, (S)-2-Amino-4-{6-methoxy-4-[4-(5-phenyl-[1,2,4]oxadiazol-3-yl)-phenoxy]-quinolin-7-yloxy}-butyric acid cyclopentyl ester], for which the IC50 in the assay on U937 cell line, in the assay on HCT 116 cell line and in the assay with HUT cell line was over 5000 nM each time.
Regarding `COc1cc2c(Oc3ccc(NC(=O)Nc4ccc5c(c4)CCC5)cc3)ccnc2cc1OCC[C@H](N)C(=O)OC1CCCC1` [Example 97, (S)-2-Amino-4-{4-[4-(3-indan-5-yl-ureido)-phenoxy]-6-methoxy-quinolin-7-yloxy}-butyric acid cyclopentyl ester], the IC50 in the assay on U937 cell line, in the assay on HCT 116 cell line and with HUT cell line was under 1000 nM throughout.
As for `COc1cc2c(Oc3ccc(NC(=O)c4ccc(C(F)(F)F)cc4)cc3)ccnc2cc1OCC[C@@H](N)C(=O)OC1CCCC1` [Example 103, (R)-2-Amino-4-{6-methoxy-4-[4-(4-trifluoromethyl-benzoylamino)-phenoxy]-quinolin-7-yloxy}-butyric acid cyclopentyl ester], the IC50 in the assay with U937 cell line, in the assay with HCT 116 cell line and in the assay with HUT cell line was under 1000 nM each time.
For the compound `COc1cc2c(Oc3ccc(NC(=O)Nc4ccc(C(F)(F)F)cc4)cc3)ccnc2cc1OCC[C@@H](N)C(=O)OC1CCCC1` [Example 104, (R)-2-Amino-4-(6-methoxy-4-{4-[3-(4-trifluoromethyl-phenyl)-ureido]-phenoxy}-quinolin-7-yloxy)-butyric acid cyclopentyl ester], the IC50 in the assay with U937 cell line, in the assay with HCT 116 cell line and with HUT cell line was under 1000 nM in each case.
With `COc1cc2c(Oc3ccc(NC(=O)c4ccc(C(F)(F)F)cc4)cc3F)ccnc2cc1OCC[C@@H](N)C(=O)OC1CCCC1` [Example 106, (R)-2-Amino-4-{4-[2-fluoro-4-(4-trifluoromethyl-benzoylamino)-phenoxy]-6-methoxy-quinolin-7-yloxy}-butyric acid cyclopentyl ester], the IC50 with U937 cell line, in the assay on HCT 116 cell line and with HUT cell line was under 1000 nM each time.
